Data set [1] is described as follows: Dynamic Vapor Sorption (DVS). The data set is classed as physicochemical. As for the experimental part:
Dynamic Vapor Sorption (DVS) was examined with an SMS Advantage instrument. About 10 mg of sample was transferred into the instrument, and the weight change with respect to the atmospheric humidity at 25° C. was recorded accordingly, with the following parameters: Equilibrium: dm/dt: 0.01%/min. (for min: 10 min and max: 180 min); drying: 0% RH for 120 min; RH (%) measurement step: 10%; RH (%) measurement step scope: 0-90-0%.

The test system of another data set is A549 cells. Briefly: Proliferation Assay (A549, Cell Titer Fluor). The data set is classed as cell-based. The following applies: Homo sapiens, 72 hours incubation, read-out: EC50 against A549 cell proliferation. On the procedure: Proliferation Assay. A549 cells were routinely maintained in RPMI 1640 media (Gibco catalog number 11875-093) supplemented with 10% dialyzed fetal bovine serum using a humidified incubator (37° C., 5% CO2 and ambient O2). In preparation for the viability assay, cells were inoculated into 384-well black CulturPlates (Perkin Elmer) at a density of 1000 cells/well in a volume of 40 uL. Following a 24-hour incubation at 37° C., 5% CO2 and ambient O2, cells were treated with compound (10 uL) in a final DMSO concentration of 0.5% (v/v). The microplates were then incubated for 72 hours (37° C., 5% CO2 and ambient O2). Cell Titer Fluor (Promega) was subsequently added (10 uL of 6× reagent) and mixed for 15 minutes at room temperature. The plates were then incubated for 30 minutes (37° C., 5% CO2 and ambient O2) and fluorescence was subsequently read on the Perkin Elmer Envision plate reader. IC50 values were calculated using a four-parameter logistic curve fit.

pEC50: −log10 of the molar value.

On to `CNC(=O)c1cn(C[C@H](F)CCc2ccc(NC(=O)Cc3cc(OC4CC(F)(F)C4)cc(C)n3)nn2)nn1` [Polymorph D, (R)-1-(4-(6-(2-(4-(3,3-difluorocyclobutoxy)-6-methylpyridin-2-yl)acetamido)pyridazin-3-yl)-2-fluorobutyl)-N-methyl-1H-1,2,3-triazole-4-carboxamide], for which the “hygroscopicity (DVS result)” value in data set [1] (25° C., 0-80% RH) is recorded as “non-hygroscopic”. The “Change of Mass, Desorption” value in data set [1] (Target % P/P0 0) was determined as 0.052%; in data set [1] (Target % P/P0 10) it was 0.0276%; in data set [1] (Target % P/P0 20), 0.0440%; in data set [1] (Target % P/P0 30), 0.0587%; in data set [1] (Target % P/P0 40) it was 0.0759%; in data set [1] (Target % P/P0 50) it was 0.0906%. The “Change of Mass, Desorption” value in data set [1] (Target % P/P0 60) was 0.1087%; in data set [1] (Target % P/P0 70), 0.1294%; in data set [1] (Target % P/P0 80), 0.1527%; in data set [1] (Target % P/P0 90) it was 0.1768%. The “Change of Mass, Sorption” value worked out at 0.000% in data set [1] (Target % P/P0 0); 0.0216% in data set [1] (Target % P/P0 10); 0.0336% in data set [1] (Target % P/P0 20); 0.0474% in data set [1] (Target % P/P0 30); 0.0578% in data set [1] (Target % P/P0 40); 0.0690% in data set [1] (Target % P/P0 50). The “Change of Mass, Sorption” value stood at 0.0828% in data set [1] (Target % P/P0 60), 0.1035% in data set [1] (Target % P/P0 70), 0.1337% in data set [1] (Target % P/P0 80) and 0.1768% in data set [1] (Target % P/P0 90). The “Change of Mass, Hysteresis” value was determined as 0.0060% in data set [1] (Target % P/P0 10); 0.0104% in data set [1] (Target % P/P0 20); 0.0112% in data set [1] (Target % P/P0 30); 0.0181% in data set [1] (Target % P/P0 40); 0.0216% in data set [1] (Target % P/P0 50); 0.0259% in data set [1] (Target % P/P0 60). Moreover, the “Change of Mass, Hysteresis” value was 0.0259% in data set [1] (Target % P/P0 70) and 0.0190% in data set [1] (Target % P/P0 80). Also, the “form transformation after DVS (XRPD overlay)” value in data set [1] (after DVS 0-90-0% RH) is recorded as “no form transformation”. Moreover, the water sorption in data set [1] (from 0-80% RH, 25° C.) came to 0.1%.

Consider `CNC(=O)c1cn(C[C@H](F)CCc2ccc(NC(=O)Cc3cc(OC4CC(F)(F)C4)cc(C)n3)nn2)nn1` [Example 1, (R)-1-(4-(6-(2-(4-(3,3-difluorocyclobutoxy)-6-methylpyridin-2-yl)acetamido)pyridazin-3-yl)-2-fluorobutyl)-N-methyl-1H-1,2,3-triazole-4-carboxamide], for which the pEC50 in the data set on A549 cells is > 7.00.

The values above are taken from patent publication US12252480B2, “Salt forms and polymorphs of (R)-1-(4-(6-(2-(4-(3,3-difluorocyclobutoxy)-6-methylpyridin-2-yl)acetamido) pyridazin-3-yl)-2-fluorobutyl)-n-methyl-1H-1,2,3-triazole-4-carboxamide” (Board of Regents, The University of Texas System, priority 2015, dated 2025).
